The source of these data is patent EP4775577A1, “RAS INHIBITOR” (Tyligand Bioscience (Shanghai) Limited, priority 2023, dated 2025).

A short description of data set [1]: Pharmacokinetics in mice. The settings on record: mouse, in vivo, po, 20 mg/kg.
Method: Male CD-1 mice, aged 6-8 weeks, were purchased from Zhejiang Vital River Laboratory Animal Co., Ltd.
For the PO administration group, compounds were formulated in 0.5% Tween 80 and 99.5% (0.5%MC (400cp)) vehicle or 0.5%MC (400cp) vehicle to a final concentration of 1 mg/mL or 2 mg/mL for each compound. The drug formulation was administered to CD-1 mice via gavage at a dose of 10 mL/kg. Blood samples were collected from the submandibular vein or other suitable means at 15 min, 30 min, 1 h, 2 h, 4 h, 6 h, 8 h, and 24 h after administration. The blood samples were centrifuged at low temperature for 5 minutes, and the plasma was collected and stored at -80°C for analysis.
10 µL of plasma sample was taken, 200 µL of methanol containing an internal standard as a precipitant was added to precipitate plasma proteins, the compounds to be tested in the plasma was extracted, centrifuged at low temperature, and 10 µL of the supernatant was injected. The drug concentration in blood plasma was analyzed by LC-MS/MS. The pharmacokinetic parameters were calculated using Winnonlin based on the blood drug concentration data at different time points.
In data set [2] the test system is Ba/F3-KRAS-G12C-Y96S. Put plainly: Ba/F3 KRAS-mutant cell proliferation inhibition (CellCounting-Lite 2.0). Format: cell-based. The settings on record: Mus musculus, BaF3, Ba/F3-KRAS-G12C-Y96S (KC-2619), 72 h. The source says:
(§1) This experiment evaluated the proliferation inhibitory activity of the compounds of the present invention against Ba/F3-KRAS mutant cell lines by using the CellCounting-Lite®2.0 method.
(§2) The following materials, reagents, and instruments were used in this experiment: Cells were all obtained from Kangyuan Bochuang Biotechnology (Beijing) Co., Ltd. RPMI-1640 (Hyclone, SH30809.01); fetal bovine serum (FBS) was used. (GIBCO, 10099-141); Phosphate-buffered saline (PBS) (Solarbio, P1020-500); CellCounting-Lite 2.0 Luminescent Cell Viability Assay (Vazyme, DD1101-02); 96-well plate (Absin, abs7016); Multifunctional microplate reader (BMG LABTECH, CLARIOstar® Plus); CO2 incubator (Thermo Scientific, Model 3100 Series).
(§3) All cell lines were cultured in complete medium at 37°C and 5% CO2. Cells in the logarithmic growth phase were harvested and counted using a platelet counter. Cell viability was assessed using the trypan blue exclusion method to ensure a viability of over 90%. Cell density was adjusted using complete medium (RPMI 1640+10% FBS) and then seeded into 96-well cell culture plates at 90 µL per well, for a total of 3000 cells. The cells in the 96-well plates were cultured at 37°C and 5% CO2. A 10-fold drug solution was prepared using complete medium, and then 10 µL of each serially diluted compound was transferred to the corresponding wells of the 96-well cell culture plate, with two replicates for each drug concentration. The cells in the drug-treated 96-well plates were cultured at 37°C and 5% CO2 for 72 h, followed by CellCounting-Lite 2.0 analysis.
(§4) The CellCounting-Lite 2.0 Luminescent Cell Viability Assay reagent was thawed and the cell plate was equilibrated to room temperature for 30 minutes. An equal volume of CellCounting-Lite 2.0 Luminescent Cell Viability Assay solution was added to each well and the plate was shaken on an orbital shaker for 5 minutes to lyse the cells. The cell plate was placed at room temperature for 20 minutes to stabilize the cryo-luminescence signal. The cryo-luminescence values were read and the data were collected.
(§5) Data was analyzed using GraphPad Prism 7.0 software. A nonlinear S-curve regression was used to fit the data to derive the dose-response curve, and the IC50 value was calculated from this curve. [formula]

The test system of data set [3] is Ba/F3-KRAS-G12R. Described as above. The settings on record: Mus musculus, BaF3, Ba/F3-KRAS-G12R (KC-2026), 72 h. In kind it is cell-based.
From the text: as §1, §2, §3, §4, §5

Data set [4] concerns Ba/F3-KRAS-G12C-A59T. The description is as above. In kind it is cell-based. The settings on record: Mus musculus, BaF3, Ba/F3-KRAS-G12C-A59T (KC-2610), 72 h.
From the text: as §1, §2, §3, §4, §5

Data set [5] relates to Ba/F3-KRAS-Q61H. Described as above. To be noted: Mus musculus, BaF3, Ba/F3-KRAS-Q61H (KC-2620), 72 h. In kind it is cell-based.
From the text: as §1, §2, §3, §4, §5

The test system of data set [6] is Ba/F3-KRAS-G12C-H95R. The data set is described as above. Format: cell-based. To be noted: Mus musculus, BaF3, Ba/F3-KRAS-G12C-H95R (KC-2618), 72 h.
From the text: as §1, §2, §3, §4, §5

Data set [7] concerns Ba/F3-KRAS-G12D. The data set is described as above. The settings on record: Mus musculus, BaF3, Ba/F3-KRAS-G12D (KC-1259), 72 h. Format: cell-based.
From the text: as §1, §2, §3, §4, §5

For data set [8], the system named is Ba/F3-KRAS-G12C-R68M. The description is as above. In kind it is cell-based. To be noted: Mus musculus, BaF3, Ba/F3-KRAS-G12C-R68M (KC-2604), 72 h.
From the text: as §1, §2, §3, §4, §5

The test system of data set [9] is Ba/F3-KRAS-G12C-A59S. The description is as above. In kind it is cell-based. To be noted: Mus musculus, BaF3, Ba/F3-KRAS-G12C-A59S (KC-2605), 72 h.
From the text: as §1, §2, §3, §4, §5

Data set [10] has as its system Ba/F3-KRAS-G12S. The description is as above. In kind it is cell-based. To be noted: Mus musculus, BaF3, Ba/F3-KRAS-G12S (KC-2894), 72 h.
From the text: as §1, §2, §3, §4, §5

Data set [11] has as its system Ba/F3-KRAS-G12C-H95L. Described as above. To be noted: Mus musculus, BaF3, Ba/F3-KRAS-G12C-H95L (KC-3683), 72 h. In kind it is cell-based.
From the text: as §1, §2, §3, §4, §5

The mark [12] stands for this setting: 0.05uM, read-out: Inhibition rate% @0.05uM.
[13] abbreviates: 1uM, read-out: Inhibition rate% @1uM.

`CCN1CC/C(=C\F)[C@](C)(COc2nc(N3Cc4c(COC)c(C(=O)N(C)C)nn4CC[C@@H]3C)c3cc(Cl)c(-c4c(F)ccc5sc(N)c(C#N)c45)c(F)c3n2)C1` (single isomer, unassigned) [Example 228A] returned an AUC(0-t) at 8 h in data set [1] of 4130 ng·h/mL. Besides, the inhibition at 0.05 µM in data set [2] (setting [12]) is 45.4%; in data set [3] (setting [12]), 85.7%; in [4] (setting [12]) it was 79.8%; in [5] (setting [12]), 99.1%; in [6] (setting [12]) it was 71.9%; in data set [7] (setting [12]), 99.5%. Also, the inhibition at 0.05 µM was found to be 91.6% in data set [8] (setting [12]), 83.3% in [9] (setting [12]), 96.4% in [10] (setting [12]) and 99.7% in data set [11] (setting [12]). Besides, the inhibition at 1 µM amounted to 74.9% in data set [2] (setting [13]); 97.6% in data set [3] (setting [13]); 95.1% in data set [4] (setting [13]); 99.6% in [5] (setting [13]); 98.6% in data set [6] (setting [13]); 99.8% in data set [7] (setting [13]). Further, the inhibition at 1 µM in data set [8] (setting [13]) turned out to be 96.6%; in data set [9] (setting [13]), 97.4%; in [10] (setting [13]) it was 98.8%; in data set [11] (setting [13]), 100%.
